Laboratory results: US4605744A, “Imidazole derivatives” (Hoffmann-La Roche Inc., priority 1985, dated 1986)
Structures can show the parent of a compound that is named as a salt. Where two headings read alike, the source gives them in different places.

Columns and labels:
E. coli 257 = test: In vitro antibacterial activity (MIC, Mueller-Hinton broth); type: cell-based
Experimental: Drug dilutions are prepared in Mueller-Hinton broth ranging from 128 to 0.008 μg/ml. The diluted agents are dispensed in 100 μl amounts into the wells of a 96-well tray and used immediately or frozen at -10° to -70° C. until needed. Using an automated inoculator, 1.5 μl of a 10^-2 dilution of an overnight culture is added to each well of the tray. The tops of the trays are then sealed using transparent tape and incubated overnight at 37° C. The trays are examined with the aid of a viewer. The lowest concentration at which no growth is observed is considered to be the minimum inhibitory concentration (MIC).

S. marcescens SM [1] = test: In vitro antibacterial activity (MIC); type: cell-based; details: Serratia marcescens, read-out: MIC
Procedure, shortened: (§1)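 Broth microdilution in Mueller-Hinton broth, drug range 128 to 0.008 μg/ml. Each well received 1.5 μl of a 10^-2 dilution of an overnight culture; sealed trays were incubated overnight at 37° C. MIC = lowest concentration with no visible growth.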

E. aerogenes 8 [2] = test: In vitro antibacterial activity (MIC); type: cell-based
Procedure, shortened: as §1

P. mirabilis 503-1136 = test: In vitro antibacterial activity (MIC); type: cell-based; details: Proteus mirabilis, 5031136, P. mirabilis 503-1136; read-out: MIC
Procedure, shortened: as §1

P. mirabilis 2 = test: In vitro antibacterial activity (MIC); type: cell-based; details: Proteus mirabilis, 2, P. mirabilis 2; read-out: MIC
Procedure, shortened: as §1

E. cloacae 6951 = test: In vitro antibacterial activity (MIC); type: cell-based
Procedure, shortened: as §1

S. marcescens 5805 = test: In vitro antibacterial activity (MIC); type: cell-based; details: Serratia marcescens, 5805, S. marcescens 5805; read-out: MIC
Procedure, shortened: as §1

P. aeruginosa B = test: In vitro antibacterial activity (MIC); type: cell-based; details: Pseudomonas aeruginosa, read-out: MIC
Procedure, shortened: as §1

K. pneumoniae 8357 = test: In vitro antibacterial activity (MIC); type: cell-based
Procedure, shortened: as §1

K. pneumoniae A = test: In vitro antibacterial activity (MIC); type: cell-based; details: Klebsiella pneumoniae, K. pneumoniae A; read-out: MIC
Procedure, shortened: as §1

P. vulgaris ATCC 6380 = test: In vitro antibacterial activity (MIC); type: cell-based; details: Proteus vulgaris, ATCC6380, P. vulgaris ATCC 6380; read-out: MIC
Procedure, shortened: as §1

K. pneumoniae HE7 = test: In vitro antibacterial activity (MIC); type: cell-based; details: Klebsiella pneumoniae; K. pneumoniae HE7; read-out: MIC
Procedure, shortened: as §1

P. aeruginosa 503-56 [3] = test: In vitro antibacterial activity (MIC); type: cell-based; details: Pseudomonas aeruginosa, 50356, P. aeruginosa 503-56; read-out: MIC
Procedure, shortened: as §1

S. aureus Smith [4] = test: In vitro antibacterial activity (MIC); type: cell-based; details: Staphylococcus aureus, S. aureus Smith; read-out: MIC
Procedure, shortened: as §1

P. rettgeri ATCC 9250 = test: In vitro antibacterial activity (MIC); type: cell-based; details: Providencia rettgeri, ATCC9250, P. rettgeri ATCC 9250; read-out: MIC
Procedure, shortened: as §1

E. cloacae 24 = test: In vitro antibacterial activity (MIC); type: cell-based; details: Enterobacter cloacae, 24, E. cloacae 24; read-out: MIC
Procedure, shortened: as §1

P. aeruginosa POW 151 = test: In vitro antibacterial activity (MIC); type: cell-based; details: Pseudomonas aeruginosa, POW151
Procedure, shortened: as §1

P. aeruginosa Stone 130 = test: In vitro antibacterial activity (MIC); type: cell-based; details: Pseudomonas aeruginosa, STONE130, read-out: MIC
Procedure, shortened: as §1

K. pneumoniae 503-994 = test: In vitro antibacterial activity (MIC); type: cell-based; details: Klebsiella pneumoniae, 503994, K. pneumoniae 503-994; read-out: MIC
Procedure, shortened: as §1

S. typhi P58A = test: In vitro antibacterial activity (MIC); type: cell-based; details: Salmonella enterica, TYPHI
Procedure, shortened: as §1

P. aeruginosa 5712 = test: In vitro antibacterial activity (MIC); type: cell-based; details: Pseudomonas aeruginosa; P. aeruginosa 5712; read-out: MIC
Procedure, shortened: as §1

S. aureus 1059B = test: In vitro antibacterial activity (MIC); type: cell-based; details: Staphylococcus aureus, read-out: MIC
Procedure, shortened: as §1

E. aerogenes 8 [5] = test: In vivo antibacterial activity (PD50); details: Klebsiella aerogenes, 8; sc; Table 9; read-out: PD50
Experimental: (§2) The results in these Tables and the PD50 's were determined by the procedure set forth on page 160 in Beskid et al., Antimicrobial Agents and Chemotherapy, Vol. 20, No. 2 pp. 159-167 (Aug. 1981) for "in vivo studies".

S. marcescens SM [6] = test: In vivo antibacterial activity (PD50); details: Serratia marcescens; sc; Table 9
Experimental: as §2

S. aureus Smith [7] = test: In vivo antibacterial activity (PD50); details: Staphylococcus aureus, sc, Table 9
E. coli 5152 = test: In vivo antibacterial activity (PD50); details: Escherichia coli, 5152, sc, Table 9
S. faecalis C1 = test: In vivo antibacterial activity (PD50); details: Enterococcus faecalis, C1; sc; Table 9
Experimental: as §2

P. aeruginosa 503-56 [8] = test: In vivo antibacterial activity (PD50); details: Pseudomonas aeruginosa, 50356, sc, Table 9
[9] = Klebsiella pneumoniae, 8357, K. pneumoniae 8357, read-out: MIC
[10] = Escherichia coli, 257, E. coli 257, read-out: MIC
[11] = Klebsiella aerogenes, E. aerogenes 8, read-out: MIC
[12] = Enterobacter cloacae, 6951, E. cloacae 6951, read-out: MIC

Structure (SMILES)	MIC (S. marcescens SM [1]) [µg/mL]	MIC (P. mirabilis 503-1136) [µg/mL]	MIC (P. mirabilis 2) [µg/mL]	MIC (S. marcescens 5805) [µg/mL]	MIC (P. aeruginosa B) [µg/mL]	MIC (K. pneumoniae 8357; [9]) [µg/mL]	MIC (K. pneumoniae A) [µg/mL]	MIC (P. vulgaris ATCC 6380) [µg/mL]	MIC (K. pneumoniae HE7) [µg/mL]	MIC (P. aeruginosa 503-56 [3]) [µg/mL]	MIC (S. aureus Smith [4]) [µg/mL]	MIC (P. rettgeri ATCC 9250) [µg/mL]	MIC (E. cloacae 24) [µg/mL]	MIC (P. aeruginosa POW 151) [µg/mL]	MIC (P. aeruginosa Stone 130) [µg/mL]	MIC (K. pneumoniae 503-994) [µg/mL]	MIC (S. typhi P58A) [µg/mL]	MIC (P. aeruginosa 5712) [µg/mL]	MIC (S. aureus 1059B) [µg/mL]	MIC (E. aerogenes 8 [2]; [11]) [µg/mL]	further results
CC1(C)S[C@@H]2[C@H](N=CN3CCC(Cn4ccnc4N)CC3)C(=O)N2[C@H]1C(=O)O [H, [2S-(2alpha,5alpha,6beta)]-6-[[[4-[(2-amino-1H-imidazol-1-yl)methyl-1-piperidinyl]methylene]amino]-3,3-dimethyl-7-oxo-4-thia-1-azabicyclo[3.2.0]heptane-2-carboxylic acid hydrochloride]	0.125	4	0.25	0.5	0.5	0.125	0.031	0.062	128	32	8	0.25	0.25	> 128	> 128	0.125	0.062	128	128		MIC (E. coli 257; Escherichia coli, 257): 0.25 µg/mL; MIC (E. aerogenes 8 [2]; Klebsiella aerogenes, 8, E. aerogenes 8): 32 µg/mL; MIC (E. cloacae 6951; Enterobacter cloacae, 6951): 4 µg/mL
CC1(C)S[C@@H]2[C@H](N=CN3CCC(CCCn4ccnc4N)CC3)C(=O)N2[C@H]1C(=O)O [I, [2S-(2alpha,5alpha,6beta)]-6-[[[4-[3-(2-amino-1H-imidazol-1-yl)propyl]piperidinyl]methylene]amino]-3,3-dimethyl-7-oxo-4-thia-1-azabicyclo[3.2.0]hpetane-2-carboxylic acid hydrochloride]	0.062	4	0.25	0.25	0.062	0.062	< 0.008	0.062	> 128	128	16	0.25	0.125	> 128	> 128	0.062	0.062	> 128	64	128	ED50 (E. aerogenes 8 [5]): > 250 mg/kg; ED50 (S. marcescens SM [6]): > 250 mg/kg; MIC (E. coli 257; [10]): 0.031 µg/mL; ED50 (S. aureus Smith [7]): 61 mg/kg; ED50 (E. coli 5152): > 250 mg/kg; ED50 (S. faecalis C1): > 250 mg/kg; MIC (E. cloacae 6951; Enterobacter cloacae, 6951): 8 µg/mL; ED50 (P. aeruginosa 503-56 [8]): > 250 mg/kg
CC1(C)S[C@@H]2[C@H](N=CN3CCC(Cn4ccnc4CN)CC3)C(=O)N2[C@H]1C(=O)O [J, [2S-(2alpha,5alpha,6beta)]-6-[[[4-[[2-(aminomethyl)-1H-imidazol-1-yl]methyl]-1-piperidinyl]methylene]amino]-3,3-dimethyl-7-oxo-4-thia-1-azabicyclo[3.2.0]heptane-2-carboxylic acid hydrochloride]	0.5	8	8	1	0.25	4	0.062	0.125	> 128	64	8	16	0.5	> 128	> 128	8	8	> 128	> 128	0.5	MIC (E. coli 257; [10]): 0.125 µg/mL; MIC (E. cloacae 6951; [12]): 16 µg/mL
CC1(C)S[C@@H]2[C@H](N=CN3CCC(CCCn4ccnc4[N+](=O)[O-])CC3)C(=O)N2[C@H]1C(=O)O [K, [2S-(2alpha,5alpha,6beta)]-6-[[[4-[3-(2-nitro-1H-imidazol-1-yl)propyl]piperidinyl]methylene]amino]-3,3-dimethyl-7-oxo-4-thia-1-azabicyclo[3.2.0]heptane-2-carboxylic acid hydrochloride 0.66 molar hydrate]	2	8	4	8	0.25		0.25	0.5	64	> 128	8	2	1	> 128	> 128	0.25	0.5	> 128	128	8	MIC (E. coli 257; Escherichia coli, 257): 0.5 µg/mL; MIC (E. cloacae 6951; [12]): 16 µg/mL; MIC (K. pneumoniae 8357; Klebsiella pneumoniae, 8357): 2 µg/mL
CC1(C)S[C@@H]2[C@H](N=CN3CCC(C4=NCCN4)CC3)C(=O)N2[C@H]1C(=O)O [L, [2S-(2alpha,5alpha,6beta)]-6-[[[4-(4,5-dihydro-1H-imidazol-2-yl)-1-piperidinyl]methylene]amino]-3,3-dimethyl-7-oxo-4-thia-1-azabicyclo[3.2.0]heptane-2-carboxylic acid hydrochloride]	1	8	1	8	0.5	2	0.25	0.25	> 128	64	4	1	1	> 128	> 128	1	0.5	> 128	64	32	MIC (E. coli 257; [10]): 1 µg/mL; MIC (E. cloacae 6951; [12]): 8 µg/mL
